Experimental data as given in US6461859B1, “Enzymatic oxidation process for desulfurization of fossil fuels” (Instituto Mexicano del Petroleo, priority 1999, dated 2002).

Tests used:
[1] = target: T1, poly(ethylene)glycol-modified cytochrome c (PEG-Cyt) (Equus caballus, UniProt P00004); assay: Oxidation of low-sulfur diesel oil enriched with dibenzothiophene (gas chromatogram); type: biochemical; conditions: desulfurized diesel oil enriched with 10 g/l DBT, PEG-Cyt and hydrogen peroxide, GC FID/FPD
T1 construct: made in house
T1 sequence (P00004 2-105 limits assumed): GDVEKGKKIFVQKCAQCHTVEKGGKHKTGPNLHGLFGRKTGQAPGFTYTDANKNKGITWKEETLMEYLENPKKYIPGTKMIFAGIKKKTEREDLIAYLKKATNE
Source text: Desulfurized diesel oil (<0.05% of sulfur) is enriched with 10 g/l of DBT and treat with poly(ethylene)glycol-modified cytochrome c (PEG-Cyt) and hydrogen peroxide. […] DBT sulfoxide is an unstable compound which may be oxidized to form DBT sulfone. Cytochrome c is a biocatalyst able to oxidize thiophenes and organosulfides [Vazquez-Duhalt et al Enzyme Microb. Technol. 15 (1993) 494] and has several advantages when compared with other hemoenzymes. […] Technol. 15 (1993) 494; Vazquez-Duhalt et al Enzyme Microb. Technol. 15 (1993) 936.]. In addition, this biocatalyst can be modified by site-directed mutagenesis [E. Torres et al. Enzyme Microb. Technol. 17 (1995) 1014.] and by chemical modification [Tinoco and Vazquez-Duhalt. Enzyme Microb. Technol. 22 (1998) 8.] to improve both its catalytic activity and range of substrates. PEG-modified enzymes are soluble in organic solvents and their activity in organic solvents is increased because of the reduction of mass transfer limitations in the system [Vazquez-Duhalt et al. Enzyme Microb. Technol. 14 (1992) 837].

[2] = Biocatalytic oxidation of primary diesel fuel followed by distillation; conditions: chloroperoxidase treatment of primary diesel oil followed by distillation
Description: After biocatalytic oxidation of the fossil fuel a second process of separation of oxidized organosulfur compounds is envisaged. Because the boiling points of sulfur compounds are incersed after biocatlytic oxidation to sulfoxides, it is possible to remove them by a single distillation. Oxidized sulfur compounds can be removed by decreasing the final distillation point. When primary diesel fuel containing 1.6% sulfur is distilled in order to obtain a 100% distillation at a temperature 50° C. lower than the original fraction, it produces a diesel fuel containing 1.27% of sulfur and 83% of the original hydrocarbons. […] Thus, a biocatalytic treatment of primary diesel oil with chloroperoxidase from Caldariomyces fumago, followed by a distillation is able to reduce the sulfur content by 80%.

c1ccc2c(c1)sc1ccccc12 [Dibenzothiophene]
biocatalytic transformation of DBT [1]: transformed to DBT sulfoxide

B1: chloroperoxidase: chloroperoxidase (EC 1.11.1.10) from Caldariomyces fumago, hemoprotein biocatalyst (protein, UniProt P04963 21-319, looked up)
Chloroperoxidase: QEPGSGIGYPYDNNTLPYVAPGPTDSRAPCPALNALANHGYIPHDGRAISRETLQNAFLNHMGIANSVIELALTNAFVVCEYVTGSDCGDSLVNLTLLAEPHAFEHDHSFSRKDYKQGVANSNDFIDNRNFDAETFQTSLDVVAGKTHFDYADMNEIRLQRESLSNELDFPGWFTESKPIQNVESGFIFALVSDFNLPDNDENPLVRIDWWKYWFTNESFPYHLGWHPPSPAREIEFVTSASSAVLAASVTSTPSSLPSGAIGPGAEAVPLSFASTMTPFLLATNAPYYAQDPTLGPND
reduction of sulfur content [2]: 80%
